Laboratory results as given in patent publication US12077503B2, “Substituted cyclic amides and their use as herbicides” (FMC CORPORATION, priority 2015, dated 2024).

Assays:
Format in all cases: in vivo
[1] = system: Kochia (Kochia scoparia); experiment: Test A preemergence; details: Bassia scoparia, pre-emergence, 240 h, 0 to 100 scale where 0 is no effect and 100 is complete control, read-out: Kochia plant response rating
Method in brief: (§1)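 Seeds sprayed preemergence with a directed soil spray, or plants at 2 to 10 cm height and one- to two-leaf stage sprayed postemergence, with test chemicals in a non-phytotoxic solvent mixture containing surfactant, in loam soil–sand blend. Injury rated visually against untreated controls after about 10 d in greenhouse, 0 (no effect) to 100 (complete control).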

[2] = system: barnyardgrass (Echinochloa crus-galli); experiment: Test A preemergence; details: Echinochloa crus-galli, pre-emergence, 240 h, 0 to 100 scale where 0 is no effect and 100 is complete control, read-out: Barnyardgrass plant response rating
Method in brief: as §1

[3] = system: giant foxtail (Setaria faberii); experiment: Test A preemergence; details: Setaria faberi, pre-emergence, 240 h, 0 to 100 scale where 0 is no effect and 100 is complete control, read-out: Foxtail, Giant plant response rating
Method in brief: as §1

[4] = system: pigweed (Amaranthus retroflexus); experiment: Test A preemergence; details: Amaranthus retroflexus, pre-emergence, 240 h, 0 to 100 scale where 0 is no effect and 100 is complete control, read-out: Pigweed plant response rating
[5] = system: ragweed (common ragweed, Ambrosia elatior); experiment: Test A preemergence; details: Ambrosia artemisiifolia, pre-emergence, 240 h, 0 to 100 scale where 0 is no effect and 100 is complete control, read-out: Ragweed plant response rating
Method in brief: as §1

[6] = system: ryegrass, Italian (Italian ryegrass, Lolium multiflorum); experiment: Test A preemergence; details: Lolium multiflorum, pre-emergence, 240 h, 0 to 100 scale where 0 is no effect and 100 is complete control, read-out: Ryegrass, Italian plant response rating
Method in brief: as §1

[7] = system: Kochia (Kochia scoparia); experiment: Test A postemergence; details: Bassia scoparia, post-emergence, 240 h
Method in brief: as §1

[8] = system: barnyardgrass (Echinochloa crus-galli); experiment: Test A postemergence; details: Echinochloa crus-galli, post-emergence, 240 h
Method in brief: as §1

[9] = system: blackgrass (Alopecurus myosuroides); experiment: Test A postemergence; details: Alopecurus myosuroides, post-emergence, 240 h
Method in brief: as §1

[10] = system: corn (Zea mays); experiment: Test A postemergence; details: Zea mays, post-emergence, 240 h
Method in brief: as §1

[11] = system: giant foxtail (Setaria faberii); experiment: Test A postemergence; details: Setaria faberi, post-emergence, 240 h
Method in brief: as §1

[12] = system: pigweed (Amaranthus retroflexus); experiment: Test A postemergence; details: Amaranthus retroflexus, post-emergence, 240 h
Method in brief: as §1

[13] = system: ragweed (common ragweed, Ambrosia elatior); experiment: Test A postemergence; details: Ambrosia artemisiifolia, post-emergence, 240 h
Method in brief: as §1

[14] = system: ryegrass, Italian (Italian ryegrass, Lolium multiflorum); experiment: Test A postemergence; details: Lolium multiflorum, post-emergence, 240 h
Method in brief: as §1

[15] = system: wheat (Triticum aestivum); experiment: Test A postemergence; details: Triticum aestivum, post-emergence, 240 h
Method in brief: as §1

[16] = system: barnyardgrass (Echinochloa crus-galli); experiment: Test B flooded paddy test; details: Echinochloa crus-galli, 250 g ai/ha, Flood; 0 to 100 scale where 0 is no effect and 100 is complete control; read-out: Barnyardgrass plant response rating
Method in brief: (§2)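 Plants at 2-leaf stage flooded to 3 cm above soil, with compounds applied directly to paddy water and that depth maintained. Plants kept in greenhouse 13–15 d. Visual rating versus controls on a 0 (no effect) to 100 (complete control) scale.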

[17] = system: ducksalad (Heteranthera limosa); experiment: Test B flooded paddy test; details: Heteranthera limosa, 250 g ai/ha, Flood; 0 to 100 scale where 0 is no effect and 100 is complete control; read-out: Ducksalad plant response rating
Method in brief: as §2

[18] = system: rice (Oryra sativa); experiment: Test B flooded paddy test; details: Oryza sativa, 250 g ai/ha, Flood; 0 to 100 scale where 0 is no effect and 100 is complete control; read-out: Rice plant response rating
Method in brief: as §2

[19] = system: sedge, umbrella (small-flower umbrella sedge, Cyperus difformis); experiment: Test B flooded paddy test; details: Cyperus difformis, 250 g ai/ha, Flood; 0 to 100 scale where 0 is no effect and 100 is complete control; read-out: Sedge, Umbrella plant response rating
Method in brief: as §2

[20] = 125 g ai/ha, preemergence, approx. 10 d

Compound: CC(C)Oc1cc([C@H]2CN(C)C(=O)[C@@H]2C(=O)Nc2ccccc2F)ccc1F [Compound 1074]
- pest or weed control at 31 g/ha ([1]; 31 g ai/ha, Preemergence): 0%
- pest or weed control at 125 g/ha [1, 20]: 20%
- pest or weed control at 31 g/ha ([2]; 31 g ai/ha, Preemergence): 90%
- pest or weed control at 125 g/ha [2, 20]: 100%
- pest or weed control at 31 g/ha ([3]; 31 g ai/ha, Preemergence): 100%
- pest or weed control at 125 g/ha [3, 20]: 100%
- pest or weed control at 31 g/ha ([4]; 31 g ai/ha, Preemergence): 0%
- pest or weed control at 125 g/ha [4, 20]: 20%
- pest or weed control at 31 g/ha ([5]; 31 g ai/ha, Preemergence): 0%
- pest or weed control at 125 g/ha [5, 20]: 10%
- pest or weed control at 31 g/ha ([6]; 31 g ai/ha, Preemergence): 0%
- pest or weed control at 125 g/ha [6, 20]: 50%
- pest or weed control at 125 g/ha ([7]; 125 g ai/ha, postemergence, visual injury on 0 to 100 scale (0 no effect, 100 complete control), approx. 10 d, read-out: Kochia plant response rating): 20%
- pest or weed control at 31 g/ha ([7]; Postemergence, 31 g ai/ha, visual injury after approx. 10 d, 0 to 100 scale, 0 no effect, 100 complete control, read-out: Plant response rating, Kochia): 0%
- pest or weed control at 125 g/ha ([8]; 125 g ai/ha, postemergence, visual injury on 0 to 100 scale (0 no effect, 100 complete control), approx. 10 d, read-out: Barnyardgrass plant response rating): 90%
- pest or weed control at 31 g/ha ([8]; Postemergence, 31 g ai/ha, visual injury after approx. 10 d, 0 to 100 scale, 0 no effect, 100 complete control, read-out: Plant response rating, Barnyardgrass): 80%
- pest or weed control at 125 g/ha ([9]; 125 g ai/ha, postemergence, visual injury on 0 to 100 scale (0 no effect, 100 complete control), approx. 10 d, read-out: Blackgrass plant response rating): 50%
- pest or weed control at 31 g/ha ([9]; Postemergence, 31 g ai/ha, visual injury after approx. 10 d, 0 to 100 scale, 0 no effect, 100 complete control, read-out: Plant response rating, Blackgrass): 20%
- plant injury at 125 g/ha ([10]; 125 g ai/ha, postemergence, visual injury on 0 to 100 scale (0 no effect, 100 complete control), approx. 10 d, read-out: Corn plant response rating): 20%
- Corn plant response rating (crop injury, 0 = no effect, 100 = complete kill) at 31 g/ha ([10]; Postemergence, 31 g ai/ha, visual injury after approx. 10 d, 0 to 100 scale, 0 no effect, 100 complete control): 0%
- pest or weed control at 125 g/ha ([11]; 125 g ai/ha, postemergence, visual injury on 0 to 100 scale (0 no effect, 100 complete control), approx. 10 d, read-out: Foxtail, Giant plant response rating): 90%
- pest or weed control at 31 g/ha ([11]; Postemergence, 31 g ai/ha, visual injury after approx. 10 d, 0 to 100 scale, 0 no effect, 100 complete control, read-out: Plant response rating, Foxtail, Giant): 70%
- pest or weed control at 125 g/ha ([12]; 125 g ai/ha, postemergence, visual injury on 0 to 100 scale (0 no effect, 100 complete control), approx. 10 d, read-out: Pigweed plant response rating): 0%
- pest or weed control at 31 g/ha ([12]; Postemergence, 31 g ai/ha, visual injury after approx. 10 d, 0 to 100 scale, 0 no effect, 100 complete control, read-out: Plant response rating, Pigweed): 0%
- pest or weed control at 125 g/ha ([13]; 125 g ai/ha, postemergence, visual injury on 0 to 100 scale (0 no effect, 100 complete control), approx. 10 d, read-out: Ragweed plant response rating): 0%
- pest or weed control at 31 g/ha ([13]; Postemergence, 31 g ai/ha, visual injury after approx. 10 d, 0 to 100 scale, 0 no effect, 100 complete control, read-out: Plant response rating, Ragweed): 0%
- pest or weed control at 125 g/ha ([14]; 125 g ai/ha, postemergence, visual injury on 0 to 100 scale (0 no effect, 100 complete control), approx. 10 d, read-out: Ryegrass, Italian plant response rating): 30%
- pest or weed control at 31 g/ha ([14]; Postemergence, 31 g ai/ha, visual injury after approx. 10 d, 0 to 100 scale, 0 no effect, 100 complete control, read-out: Plant response rating, Ryegrass, Italian): 20%
- plant injury at 125 g/ha ([15]; 125 g ai/ha, postemergence, visual injury on 0 to 100 scale (0 no effect, 100 complete control), approx. 10 d, read-out: Wheat plant response rating): 40%
- plant injury at 31 g/ha ([15]; Postemergence, 31 g ai/ha, visual injury after approx. 10 d, 0 to 100 scale, 0 no effect, 100 complete control, read-out: Plant response rating, Wheat): 0%
- pest or weed control at 250 g/ha [16]: 75%
- pest or weed control at 250 g/ha [17]: 100%
- pest or weed control at 250 g/ha [18]: 35%
- pest or weed control at 250 g/ha [19]: 0%
